# Reference: patent publication US7108865B2, “Controlled-release dosage forms of azithromycin” (Pfizer Inc, priority 1994, dated 2006)
# Columns and labels:
# [1] = human body; cited from earlier work
# [2] = Visual Analogue Scale gastrointestinal side effects after 2 g oral capsule dose, single vs divided (Example 1); format: in vivo, human; parameters: key to Mean Cumulative Score (Visual Analogue Scale), abdominal pain / Mean Cumulative Score (Visual Analogue Scale), nausea / Mean Cumulative Score (Visual Analogue Scale), regurgitation / Mean Cumulative Score (Visual Analogue Scale), abdominal cramping: per-subject sum of 0–10 VAS scores over 240 h, averaged over group; conditions: for Incidence of Visual-Analogue-Scale score >1, abdominal cramping / Incidence of Visual-Analogue-Scale score >1, abdominal pain / Incidence of Visual-Analogue-Scale score >1, nausea / Incidence of Visual-Analogue-Scale score >1, regurgitation / Incidence of Visual-Analogue-Scale score >4, abdominal cramping / Incidence of Visual-Analogue-Scale score >4, abdominal pain / Incidence of Visual-Analogue-Scale score >4, nausea / Incidence of Visual-Analogue-Scale score >4, regurgitation: any time during 240 hr post-dose, #patients reporting score/total # patients; for Mean Cumulative Score (Visual Analogue Scale), abdominal cramping / Mean Cumulative Score (Visual Analogue Scale), abdominal pain / Mean Cumulative Score (Visual Analogue Scale), nausea / Mean Cumulative Score (Visual Analogue Scale), regurgitation: entire 240 hour post-dose period
# Protocol: In a double-blind, randomized, placebo-controlled parallel group study, healthy male subjects were divided into three groups. Group A received a single 2 g azithromycin dose as eight 250 mg azithromycin capsules (“bolus dosing” group). Group B received the same total dose, administered as eight 250 mg capsules at the rate of one 250 mg capsule each 30 minutes for 3.5 hr (“divided dosing” group). Group C received matching placebo capsules. All subjects received eight capsules of drug or placebo at time 0, and a capsule of drug or placebo every half-hour for 3.5 hr. All subjects were dosed after an overnight fast. […] Tmax is the time at which Cmax is achieved.
# Prior to dosing and each blood sampling time, each subject filled out a questionnaire, which consisted of a series of “Visual Analogue Scales” in which the subject was required to rate, on a scale of 0–10, the severity of certain potential side effects. The subjects were instructed that “0” indicated an absent effect and “10” indicated the worst possible effect. The subjects were instructed to interpolate between 0 and 10 for moderate side effects.
# Analysis of side effect visual-analogue-scale data was carried out in two formats. In the first format (Table II), the analysis concentrated on the general incidence of side effects of a particular type. For each side effect type (e.g., abdominal pain), Table II reports the number of subjects who reported a score >1 at any time during the 240 hr post-dosing, and the number of subjects who reported a score >4 at any time during the 240 hr post-dosing. This analysis assumes that all scores >1 represent a real side effect occurrence, however mild or severe. A score >4 is presumed to reflect a moderate-to-severe side effect occurrence.
# In the second format (Table III), the analysis reflects the general severity and duration of side effects. For a particular side effect (e.g., Abdominal Pain) in a particular subject, all visual-analogue-scale scores (over the 240 hr post-dose period) were summed to give a “cumulative score” over the entire time period of evaluation. “Cumulative scores” for all members of a treatment group were summed, and divided by the number of subjects in the group, to give a Mean Cumulative Score. […] Table III presents Mean Cumulative Scores for abdominal pain, nausea, regurgitation, and abdominal cramping.
# [3] = Recovery of azithromycin in ileostomy fluid after IV infusion in ileostomy subjects; format: in vivo, human; conditions: 500 mg IV infusion over 1 hr, twelve ileostomy subjects, 24 hr following dose
# Description: A 2.0 g intravenous azithromycin dose is equivalent to a 5.4 g oral azithromycin dose, from the standpoint of equivalent systemic drug exposure. At an even higher intravenous dose, a higher side effect incidence is observed. While GI side effects can be elicited by high intravenous doses, these observations are consistent with the statement that azithromycin GI side effects are mediated by direct contact of the drug with the intestinal wall in the lumen, based upon the following additional study. Twelve ileostomy subjects were administered an IV infusion of 500 mg azithromycin over 1 hr. Serum was collected predose and at 0.17, 0.33, 0.5, 1, 2, 4, 8, 12, 24, 48, 72, 96, 120, and 144 hr following initiation, of the infusion. In addition, the contents of the subjects' ileostomy bags were collected for the following intervals: 12 hr predose, 0–6 hr post-dose, 6–12 hr post-dose, and 12–24 hr post-dose. The serum and ileostomy fluid concentrations of azithromycin were assayed. […] Thus it is not surprising that high intravenous doses of azithromycin can cause gastrointestinal side effects, since a portion of the IV dose partitions into the lumen of the small intestine.
# clinical = conditions: male, human, in vivo
# Description: Healthy male subjects were divided into two groups. Group A received a 2 g azithromycin dose administered directly into the duodenum as a solution via a nasoenteric tube. Group B received the same azithromycin solution dose, administered directly into the ileocecal region of the small intestine via a nasoenteric tube. The nasoenteric tube was a single lumen, 4.5 meter tube with a side port for delivery of drug. Placement of the tube for duodenal and ileocecal delivery was confirmed by fluoroscopy. Infusions to the duodenum or ileocecal region were administered at a concentration of 40 mg/ml within 5 minutes. All subjects were dosed after an overnight fast. Subjects were randomized to receive azithromycin and placebo via nasoenteric tube and intravenous infusion in a double-blind, placebo controlled fashion.
# Blood samples were withdrawn prior to dosing, and at 0.08, 0.17, 0.33, 0.66, 1, 2, 4, 8, 12, 24, 48, 72, and 96 hr post-dosing. Serum azithromycin concentrations were determined using the high performance liquid chromatography assay described in Shepard et al., J. Chromatography, 565: 321–337, (1991). Total systemic exposure to azithromycin was determined by measuring the area under the serum azithromycin concentration vs. time curve (AUC) for each subject in a given group, and then by calculating a mean AUC for the group. Cmax is the highest serum azithromycin concentration achieved in a subject. Tmax is the time at which Cmax is achieved. In one leg of this study, all subjects received an intravenous 2g azithromycin dose. The intravenous AUC was determined in order to calculate the absolute duodenal and ileocecal bioavailabilities, as described below.
# [4] = 250 mg per half-hr for 3.5 hr (2 g total), oral
# [5] = 250 mg/half-hr for 3.5 hr (2 g total), oral
compound,measurement,setting,value
"CC[C@H]1OC(=O)[C@H](C)[C@@H](O[C@H]2C[C@@](C)(OC)[C@@H](O)[C@H](C)O2)[C@H](C)[C@@H](O[C@@H]2O[C@H](C)C[C@H](N(C)C)[C@H]2O)[C@](C)(O)C[C@@H](C)CN(C)[C@H](C)[C@@H](O)[C@]1(C)O [azithromycin, 9a-aza-9a-methyl-9-deoxo-9a-homoerythromycin A]",elimination half-life,[1],about 69 hours
same,"Incidence of Visual-Analogue-Scale score >1, abdominal cramping",[2]; [4],4/14
same,"Incidence of Visual-Analogue-Scale score >1, abdominal pain",[2]; [4],6/14
same,"Incidence of Visual-Analogue-Scale score >1, nausea",[2]; [4],3/14
same,"Incidence of Visual-Analogue-Scale score >1, regurgitation",[2]; [4],0/14
same,"Incidence of Visual-Analogue-Scale score >4, abdominal cramping",[2]; [4],0/14
same,"Incidence of Visual-Analogue-Scale score >4, abdominal pain",[2]; [4],1/14
same,"Incidence of Visual-Analogue-Scale score >4, nausea",[2]; [4],0/14
same,"Incidence of Visual-Analogue-Scale score >4, regurgitation",[2]; [4],0/14
same,"Mean Cumulative Score (Visual Analogue Scale), abdominal cramping",[2]; [5],4.46
same,"Mean Cumulative Score (Visual Analogue Scale), abdominal pain",[2]; [5],6.31
same,"Mean Cumulative Score (Visual Analogue Scale), nausea",[2]; [5],2.77
same,"Mean Cumulative Score (Visual Analogue Scale), regurgitation",[2]; [5],1.38
same,"Incidence of Visual-Analogue-Scale score >1, abdominal cramping",[2]; 2 g single oral dose,6/15
same,"Incidence of Visual-Analogue-Scale score >1, abdominal pain",[2]; 2 g single oral dose,6/15
same,"Incidence of Visual-Analogue-Scale score >1, nausea",[2]; 2 g single oral dose,2/15
same,"Incidence of Visual-Analogue-Scale score >1, regurgitation",[2]; 2 g single oral dose,0/15
same,"Incidence of Visual-Analogue-Scale score >4, abdominal cramping",[2]; 2 g single oral dose,1/15
same,"Incidence of Visual-Analogue-Scale score >4, abdominal pain",[2]; 2 g single oral dose,2/15
same,"Incidence of Visual-Analogue-Scale score >4, nausea",[2]; 2 g single oral dose,1/15
same,"Incidence of Visual-Analogue-Scale score >4, regurgitation",[2]; 2 g single oral dose,0/15
same,"Mean Cumulative Score (Visual Analogue Scale), abdominal cramping",[2]; 2 g single oral dose,4.67
same,"Mean Cumulative Score (Visual Analogue Scale), abdominal pain",[2]; 2 g single oral dose,6.4
same,"Mean Cumulative Score (Visual Analogue Scale), nausea",[2]; 2 g single oral dose,1.93
same,"Mean Cumulative Score (Visual Analogue Scale), regurgitation",[2]; 2 g single oral dose,0.53
same,dose recovered intact in the ileostomy fluid,[3],13%
same,AUC0–96,clinical,14500 ng·h/mL
same,bioavailability,clinical,39.1%
same,bioavailability for duodenal dosing (AUCduodenal/AUCIV×100),clinical,43.8%
same,overall systemic exposure (AUC) lower for ileocecal dosing compared with duodenal dosing,clinical,15%
same,AUC(0-t),clinical; AUC0–96,17000 ng·h/mL
